From US11192888B2, “Antibacterial compounds” (priority 2017, dated 2021)
Read-outs that look alike come from different tables or passages of the source.

Legend:
[1] = test system: Corynebacterium urealyticum NCTC 12011; test: microbe, parasite or virus in culture; settings: NCTC12011
[2] = test system: Clostridium difficile strains (21 clinical, 7 reference)
[3] = test system: Enterococcus faecalis ATCC 29212; test: microbe, parasite or virus in culture; settings: ATCC29212
[4] = test system: Lactobacillus rhamnosus ATCC 53103; test: microbe, parasite or virus in culture; settings: Lacticaseibacillus rhamnosus, ATCC53103
[5] = test system: Corynebacterium jeikeium NCTC 11914; test: microbe, parasite or virus in culture; settings: NCTC11914
[6] = test system: Corynebacterium striatium NCTC 764; test: microbe, parasite or virus in culture; settings: NCTC764
[7] = test system: C. difficile ATCC 43255 (aka VPI 10463; ribotype 087); test: Mouse model of C. difficile-associated disease; format: in vivo, C57BL/6 mice
[8] = test system: Enterococcus faecium NCTC 12204; test: microbe, parasite or virus in culture; settings: NCTC12204
[9] = test system: Clostridium difficile strains (21 clinical, 7 reference); test: microbe, parasite or virus in culture; settings: Clostridioides difficile
[10] = test system: Staphylococcus aureus ATCC 29213; test: microbe, parasite or virus in culture; settings: ATCC29213
[11] = test system: Clostridium perfringens NCTC 8237; test: microbe, parasite or virus in culture
[12] = test system: Bacteroides fragilis ATCC 25285; test: microbe, parasite or virus in culture; settings: ATCC25285
[13] = test system: Bifidobacterium bifidum ATCC 11863; test: microbe, parasite or virus in culture; settings: ATCC11863
[14] = test system: Propionibacterium acnes ATCC 6919; test: microbe, parasite or virus in culture; settings: Cutibacterium acnes, ATCC6919
[15] = test system: Clostridium innocuum DSM 1286; test: microbe, parasite or virus in culture; settings: DSM1286
[16] = test system: Clostridium ramosum DSM 1402; test: microbe, parasite or virus in culture; settings: Thomasclavelia ramosa, DSM1402
[17] = test system: Bifidobacterium breve ATCC 15700; test: microbe, parasite or virus in culture; settings: ATCC15700
[18] = test system: Clostridium difficile ATCC 43255; test: CLSI MIC, representative gut bacteria; format: cell-based; settings: Clostridioides difficile, ATCC43255; Clostridium difficile ATCC 43255; read-out: MIC
Protocol: (§1) Comparative in vitro bacterial susceptibility to compounds 3, 9 and 10, vancomycin and metronidazole was determined using methods according to the Clinical and Laboratory Standard Institute (CLSI) approved guidelines (M7-A10, M11-A7 or M45-A2) for anaerobic and aerobic organisms.

[19] = test system: Clostridium sordellii ATCC 9714; test: CLSI MIC, representative gut bacteria; format: cell-based; settings: Paraclostridium sordellii, ATCC9714, read-out: MIC
Protocol: as §1

[20] = test system: Actinomyces viscosus DSM 43327; test: microbe, parasite or virus in culture; settings: DSM43327

CN[C@H](CC(C)C)C(=O)N[C@H]1C(=O)N[C@@H](CC(N)=O)C(=O)N[C@H]2C(=O)N[C@H]3C(=O)N[C@H](C(=O)N[C@H](C(=O)O)c4cc(O)cc(O)c4-c4cc3ccc4O)[C@H](O)c3ccc(c(Cl)c3)Oc3cc2cc(c3O[C@@H]2O[C@H](CO)[C@@H](O)[C@H](O)[C@H]2O[C@H]2C[C@](C)(N)[C@H](O)[C@H](C)O2)Oc2ccc(cc2Cl)[C@H]1O [Vancomycin, reference compound]
504.00 h: Mean survival ([7]; 10 mg/kg oral BD for 5 days)
2 µg/mL: MIC [3]
0.5 µg/mL: MIC50 ([2]; 28 C. difficile strains) | MIC90 ([2]; 28 C. difficile strains) | MIC ([2]; C. difficile strain 630 (ribotype 012)) | MIC ([2]; C. difficile strain BI1-FDX^R) | MIC ([2]; C. difficile strain Clin. 1) | MIC ([2]; C. difficile strain Clin. 2) | MIC ([2]; C. difficile strain Clin. 3) | MIC ([2]; C. difficile strain Clin. 6) | MIC ([2]; C. difficile strain Clin. 7) | MIC ([2]; C. difficile strain Clin. 8) | MIC ([2]; C. difficile strain Clin. 9) | MIC ([2]; C. difficile strain Clin. 10) | MIC ([2]; C. difficile strain Clin. 11) | MIC ([2]; C. difficile strain Clin. 12) | MIC ([2]; C. difficile strain Clin. 13) | MIC ([2]; C. difficile strain Clin. 14) | MIC ([2]; C. difficile strain Clin. 15) | MIC ([2]; C. difficile strain Clin. 16) | MIC ([2]; C. difficile strain Clin. 18) | MIC ([2]; C. difficile strain Clin. 20) | MIC ([2]; C. difficile strain Clin. 21) | MIC ([2]; C. difficile strain Clin. 22) | MIC ([2]; C. difficile strain Clin. 23) | MIC ([2]; C. difficile strain Clin. 24) | MIC [6] | MIC [9] | MIC50 [9] | MIC90 [9] | MIC ([9]; ATCC9689) | MIC ([9]; ATCC13366) | MIC ([9]; ATCC43255) | MIC ([9]; ATCC700057) | MIC ([9]; BAA1875) | MIC ([9]; read-out: MIC40)
> 64 µg/mL: MIC [4] | MIC [8]
1 µg/mL: MIC [1] | MIC [5] | MIC [10]
survived to the end of the study: survival to the end of the study at day-21 post-infection ([7]; 10 mg/kg)

Cc1ncc([N+](=O)[O-])n1CCO [Metronidazole]
0.5 µg/mL: MIC [12] | MIC [15] | MIC [18]
4 µg/mL: MIC [16] | MIC [17]
2 µg/mL: MIC [13] | MIC [20]
> 64 µg/mL: MIC [14]
1 µg/mL: MIC [11] | MIC [19]
